Experimental data published in patent US12161636B2, “Method of increasing lifespan in mammals” (priority 2023, dated 2024).
Where “and” joins values, the source holds several entries; their conditions need not be identical. Identical values can stand only once. Entries after “also recorded” stand apart in the source; their conditions may differ.

Tests used:
Beagle dogs [1] = tested on: Beagle dogs
Procedure: This 17-week HFD design, metabolic reversal study was conducted on 4 groups of 12 Beagle dogs each. All dogs included in the study were males, aged 3-7 years, weighing 12.05-22.95 kg. After 63 days (9 weeks) of normal diet or HFD-feeding, Placebo was administered daily by mouth to Groups 1 and 2 while pioglitazone was administered daily by mouth to Groups 3 and 4.
Animals were fed their daily food ration (g) as a split ration. Each feeding (AM or PM) consisted of approximately half the animal's daily food ration and was offered approximately 4 hours apart. Dogs were given approximately 2 hours to consume each ration and any remaining food was weighed back for each feeding.
All dogs were fed ad libitum “normal diet” (ND) consisting of 55% fat for all baseline measurements prior to study start. Prior to the study start, dogs were randomly assigned to either ND or HFD consisting of 74% fat, on which they remained for approximately 9 weeks. After 9 weeks, HFD-fed animals were further randomized to treatment groups prior to dosing based on fasting insulin levels as the primary factor and total body weight as the secondary factor. Dogs in the ND group were continued on ND through the conclusion of the study. Blood collections for Chemistry, Haematology, Triglycerides, Cholesterol, Metabolomics and Lipidomics, efficacy Biomarkers (Adiponectin, Fasting Insulin, and Leptin), pioglitazone pharmacokinetics, Cytokines (IL-6 and TNFa) and Non-esterified fatty acids (NEFA) were performed throughout the study to assess the diet and drug-related effects on markers of safety and metabolic function. Baseline (Day −56) and Pre-Treatment (Day 0) readings of each parameter were compared to Treatment (Day 57) readings.
OGTTs were performed during the Pre-Treatment (Day −14) and Treatment (Day 42) phases to assess glucose and insulin kinetics and insulin sensitivity. OGTTs were carried out as previously described by Coate et al., 2010. Briefly, dogs were fasting overnight prior to conducting the procedure. Blood was sampled and serum and plasma separated at −20 and 0 minutes pre-glucose bolus to establish fasting glucose and insulin values. At 0 minutes (t=0), a glucose bolus (0.9 g/kg, p.o.) was delivered. Blood was collected at 5, 10, 20, 30, 40, 50, 60, 70, 80, 90, 120, 180 and 240 minutes post-glucose bolus. Serum was then analyzed for glucose and plasma was analyzed for insulin levels at each time point.
Dogs were fasted for a minimum of 12 hours prior to the first blood draw of each sampling day. D2O and ^2H2^18O were prepared with autoclaved glassware and utensils, weighed out separately, and drawn into separate syringes. Body weights were taken the day of sampling and prepared D2O and ^2H2^18O were drawn into separate syringes per animal and weighed to the third decimal place prior to administration. Two milliliters (mL) of blood was collected prior to administration of 50 mg/kg of 99% D2O and 150 mg/kg of 97% ^2H2^18O via oral syringe. Blood samples were then collected at 2 h, 24 h, 72 h, 120 h and 168 h after initial D2O+^2H2^18O administration. Following collection, blood was plasma separated in K2EDTA tubes and were stored at −80° C. until analysis.
Individual and summary statistics, arithmetic means, percentage change and within and between group comparisons were done.
Subjects were administered Pioglitazone treatment, and fatty acids analysis was performed from blood samples of subjects. Fatty acids were detected and analyzed by species and quantified. Additionally, the effects of Pioglitazone on each different species of fatty acids were analyzed, as shown in FIG. 6B (Palmitic Acid), FIG. 6C (Linoleic Acid), and FIG. 6D (Oleic Acid).

dogs [2] = conditions: 12 weeks; oral 30, 60, 150 mg/kg/day; cited from earlier work
Beagle dogs [3] = test: Pioglitazone started 2 weeks before HFD to prevent metabolic dysfunction; OGTT and HIEG clamp (Example 5); assay type: in vivo, dog
From the text: The purpose of this study was to assess the impact of pioglitazone on HFD-induced insulin resistance, hyperinsulinemia and fatty acid regulation in beagle dogs. We hypothesized that administration of pioglitazone to HFD-fed, metabolically dysfunctional dogs would (1) upregulate adiponectin levels (2) protect whole body insulin sensitivity as measured by an oral glucose tolerance test (OGTT) and hyperinsulinemic euglycemic clamp (HIEG) and (3) prevent increased deleterious fatty acid levels in the face of a HFD.
Study Design: Twenty four animals (between 1 and 2 years old) were acclimated for at least 2 weeks and surgically implanted with a femoral artery catheter under anesthesia. 2 baseline tests were performed before any treatment: an OGTT and a HIEG clamp.
The dogs were then randomly assigned to one of 3 groups: a placebo group (n=8) that received an empty capsule daily, a group that received 1 mg/kg pioglitazone in the form of a 15 mg pill (Dose 1, n=8), a group that received 2 mg/kg pioglitazone in the form of […] (Dose 2, n=8). Pioglitazone pills (Actos, Teva Pharmaceuticals, NJ) were given daily immediately before feeding and flushed with 5 mL of water.
Two weeks after the treatment started, all the animals were put on a HFD (Research Diet 5SQ1, Test Diet from Purina). On Day 46 and 56 after the start of the pioglitazone treatment, the animals were given an OGTT and a HIEG clamp respectively to compare to their baseline metabolic response. On day 46 and 56, placebo and pioglitazone were given one hour before the gavage and one hour before the start of the somatostatin infusion. The same amount of glucose as the initial OGTT study was given and the same rate of insulin and hormone was given during the clamp despite the gain weight of the animal, because we know that the animals mainly gain fat, a tissue that is unresponsive to the level of insulin.
Additionally, every 2 weeks, blood was harvested from each animal for multiple chemical measurements (Adiponectin, Superchem panel (performed by Antech Diagnostics)) before pioglitazone administration and feeding. Pioglitazone was also measured every 2 weeks in the serum, harvested 1 hour after pill administration and feeding.

client-owned dogs = test: Randomized, masked, placebo-controlled field pilot study on aging biomarkers (Example 6); assay type: in vivo, dog
From the text: The effects of Pioglitazone aging biomarkers in client-owned dogs can be determined. Approximately 60 dogs are enrolled and randomized into two groups at a 3:1 ratio of treatment to control. Dogs can be screened on visit 1, which is 7 days before the study, and complete screening on visit 2, Day 0 of the study. The treatment can be randomized with dosing beginning on Day 0. The study has participant dogs enrolled for approximately 3 months, with evaluation visits about every 30 days for biomarker measurements and safety evaluations. The HRQL, CFI, insulin, and FFA blood levels are measured.
Fasting insulin. Dogs should be fasted for 12 hours before blood draw for fasting insulin. If the dog is not fasted before the blood collection, the Protocol Deviation: Subject Level eCRF must be completed.
The study will be a multi-site, field pilot study. The design is a randomized, masked, placebo-controlled study in client-owned dogs. The study will contain two treatment groups randomized at a 3:1 ratio in Table 10 below.
The study will enroll an estimated 60 dogs across all study sites. Approximately 45 dogs will be treated with IVP, and approximately 15 dogs will be treated with CP. Additional dogs may be enrolled if initial attrition rates exceed the anticipated level. Likewise, fewer dogs may be enrolled if the study ends before full enrollment.
Drug Administration. IVP/CP will be administered by the Owner to the subject once daily starting at study visit 2 and for the duration of the study. The administration route for IVP and CP is by mouth (PO).

dogs [4] = conditions: dog, in vivo, cited from earlier work
dogs [5] = conditions: cited from earlier work
[6] = HFD-fed Beagle dogs, 1 or 2 mg/kg/day by mouth
[7] = HFD-fed Beagle dogs, vs HFD-fed placebo group
[8] = beagle dogs on HFD, both doses, Day 56, excluding 4 dogs with non-comparable insulins
[9] = beagle dogs on HFD, clamp experiments
[10] = subjects 001-SAR-007 and 003-BAK-018

## CCc1ccc(CCOc2ccc(CC3SC(=O)NC3=O)cc2)nc1.Cl (stereo not shown) [pioglitazone]
Beagle dogs [1]; HFD-fed Beagle dogs
  caloric intake: without any effects
  food consumption: without any effects
  leptin levels: without any effects
Beagle dogs [1]; [6]
  HFD-induced elevation of SFA: reversed HFD-induced elevation of SFA
  palmitic acid: decreases in palmitic acid
Beagle dogs [1]; HFD-fed Beagle dogs, 1 or 2 mg/kg/day by mouth, GC-MS
  levels of metabolically deleterious fatty acids (SFAs, palmitic acid, linoleic acid, oleic acid): dose dependently regulates
Beagle dogs [1]; HFD-fed Beagle dogs, 1 or 2 mg/kg/day by mouth, OGTT Day 42
  glucose excursion during glucose tolerance test: no impact
Beagle dogs [1]; HFD-fed Beagle dogs, 1 or 2 mg/kg/day by mouth, biomarker of target engagement
  adiponectin: significantly upregulates
Beagle dogs [1]; HFD-fed Beagle dogs, pioglitazone 1 or 2 mg/kg/day by mouth after 9 weeks HFD
  fasting glucose measurements: no impact
Beagle dogs [1]; HFD-fed Beagle dogs, visceral and subcutaneous adipose tissue
  size of adipocytes in the viscera (histological examination): decreased the size of adipocytes in the viscera
Beagle dogs [1]; [7]
  body composition: fat mass: increases in fat mass
  circulating cholesterol: significantly reduced
  circulating triglycerides: significantly reduced
  fatty acid profiles: normalized detrimental fatty acid profiles
Beagle dogs [1]; dog, in vivo
  tolerability of administration: tolerated Placebo/pioglitazone administration well
Dogs [2]
  frequency of clinical signs: The frequency appeared dose-dependent.
Beagle dogs [3]; beagle dogs on HFD, 1 mg/kg and 2 mg/kg daily, Day 46
  insulin response during the OGTT: reduced compared to the placebo group
Beagle dogs [3]; beagle dogs on HFD, OGTT
  glucose metabolism: normalize glucose metabolism without increasing insulin secretion
Beagle dogs [3]; [8]
  GIR (glucose infusion rate), HIEG clamp: able to overcome the defect
  Rd (rate of glucose disappearance), HIEG clamp: able to overcome the defect
Beagle dogs [3]; [9]
  fasting FFA levels: reduced
  inhibition of lipolysis: improved
Beagle dogs [3]; beagle dogs, 1 mg/kg and 2 mg/kg daily, by Day 14, vs placebo group
  circulating adiponectin: significant increase; also recorded: larger and more sustained than in the placebo group
client-owned dogs; Subject 001-SAR-007, less than one month after starting, screening 0.5
  TBili: 0.2 mg/dL
client-owned dogs; Subject 001-SAR-007, less than one month after starting, screening 76.8, reference range 5.2-41.5
  insulin: 16.2 uIU/mL
client-owned dogs; Subject 001-SAR-007, less than one month after starting, screening 177, reference range 5-160
  ALP: 88 U/L
client-owned dogs; Subject 001-SAR-007, less than one month after starting, screening 182, reference range 16-55
  AST: 22 U/L
client-owned dogs; Subject 001-SAR-007, less than one month after starting, screening 469, reference range 18-121
  ALT: 48 U/L
client-owned dogs; Subject 003-BAK-016, screening 241 U/L, reference range 5-160 U/L
  ALP: remained elevated
client-owned dogs; Subject 003-BAK-016, subsequent visits before visit 6, screening 96.6, reference range 5.2-41.5
  insulin: 62.2 uIU/mL and 52.9 uIU/mL
client-owned dogs; Subject 003-BAK-016, visit 6, 90 days later, screening 96.6
  insulin: 42.3 uIU/mL
client-owned dogs; Subject 003-BAK-018, visit 4 (approximately day 30), screening 66.3, reference range 5.2-41.5
  insulin: 15.3 uIU/mL
client-owned dogs; Subject 003-BAK-018, visit 4 (approximately day 30), screening 1603, reference range 5-160
  ALP: 774 U/L
client-owned dogs; all 3 dogs with elevated baseline insulin
  liver enzymes: reduction in liver enzymes
client-owned dogs; client-owned dogs, baseline to day 90, not statistically significant (p=0.538)
  average reduction in insulin levels: 2.35 uIU/mL
client-owned dogs; client-owned dogs, p=0.171
  average reductions in insulin levels compared with control group: trending lower
client-owned dogs; [10]
  gross lipemia in the blood samples: eliminating gross lipemia
  triglycerides: reduction or normalization
client-owned dogs; three pioglitazone-treated dogs
  insulin levels in dogs with elevated baseline insulin levels: notable effect
Dogs [4]; 10 mg/kg/day
  serum albumin: Decrease in serum albumin and protein
  serum protein: Decrease in serum albumin and protein
Dogs [4]; 10 mg/kg
  hematocrit: Reduction in hematocrit in both sexes
Dogs [5]; 26 weeks, oral 0, 1, 3, 10 mg/kg/day
  nontoxic dose: be 3 mg/kg/day.
Dogs [5]; dog, in vivo, 10 mg/kg
  hydropericardium: hydroperi-
  leukocytes: increase in platelet and leukocytes
  platelet: increase in platelet and leukocytes
